Test results published in patent EP4772498A1, “COMPOUND ACTING AS ANDROGEN RECEPTOR ANTAGONIST” (China Pharmaceutical University, priority 2023, dated 2025).
Marks after values point to notes of the source that are not given here.

How the values were obtained:
[1] = system: AR; assay: AR antagonistic activity: AR / PSA ARE1 luciferase reporter gene assay in transfected LNCaP cells stimulated with 1 nM DHT; type: cell-based; conditions: 24 h, normalised to 0.1% DMSO and 30 µM enzalutamide
Procedure: LNCaP cells were plated in a 6-well plate (Corning, 3516) at 8 × 10^5 cells/well.
AR and PSA ARE1 reporter gene plasmids (Bio (Anhui) Co., Ltd.) and transfection reagents Lipo3000 and P3000 (Lipofectamine™ 3000) (a total of 2.5 µg of plasmids, i.e., 1.25 µg of each plasmid, were added to each well) were left to stand and incubated for 10 min, and then 250 µL of the above transfection reagents were added dropwise to each well containing cells and co-incubated with the cells for 24 h.
The cells were washed with PBS, and the medium was replaced with a phenol red-free RPMI-1640 medium containing 5% carbon adsorption serum (or 10% fetal bovine serum and 1% penicillin and streptomycin). The cells were re-plated onto a 96-well plate (Corning, 3603) according to the number of cells plated (2 × 10^4 cells/well).
After cell plating, the test compound (or DMSO or positive control) was added. After at least 30 min of incubation, DHT (dihydrotestosterone) was added to the culture system at a final concentration of 1 nM. The culture system was then incubated in a carbon dioxide incubator.
Test compound: 10 mM stock solution, with a final concentration of 3.3 µM or 6.7 µM. Negative control: 0.1% DMSO. Positive control: 30 µM enzalutamide.
After the test compound (or DMSO or positive control) and DHT were co-incubated for 24 h, the luciferase signal was detected using the Vazyme Bright-Lite substrate. The medium was added at 70 µL/well, and the plate was shaken for 2 min, followed by reading of the luciferase signal.
Assay robustness was confirmed using the DMSO and low concentration control data: Ave_H = Ave(DMSO) [formula] Ave_L = Ave (30μMenzalutamide) [formula] Inhibition rate (%) = (Ave_H−Sample)/(Ave_H−Ave_L) × 100% [formula] Ave_H: the measurement of the negative control (0.1% DMSO); Ave_L: the measurement of the positive control (30 µM enzalutamide); Sample: the measurement of the test compound; The corresponding activity test results for the test compounds were specified in Table 1. Table 1. Corresponding activity test results for compounds disclosed herein

[2] = Metabolic stability assay in liver microsomes; type: in vitro ADME; conditions: human liver microsomes, pH 7.4, human liver microsome 0.5 mg/mL, 1 mM NADPH, compound 1 µM, 37 °C; for microsomal CLint at 1 µM: read-out: In vitro Clint; for half-life at 1 µM: read-out: In vitro T1/2
Procedure: The metabolic stability of compounds disclosed herein in liver microsomes was determined using the following method.
• 1. Liver microsome source: Human liver microsome (Corning, 452117) • 2. Na2HPO4 (Tianjin Guangfu Fine Chemical Research Institute, 20180130) • 3. KH2PO4 (Tianjin Guangfu Fine Chemical Research Institute, 20180920) • 4. MgCl2 (Tianjin Guangfu Fine Chemical Research Institute, 20191216) • 5. NADPH (Solarbio, 1216C022) • 6. Positive control compound verapamil (Sigma, MKBV4993V) • 7. AB Sciex Triple Quad 4000 liquid chromatography-mass spectrometry system
1. Preparation of 100 mM phosphate-buffered saline (PBS): 7.098 g Na2HPO4 was dissolved in 500 mL of purified water by sonication to give solution A. 3.400 g of KH2PO4 was dissolved in 250 mL of purified water by sonication to give solution B. Solution A was placed on a stirrer, and solution B was added slowly until the pH reached 7.4, so as to give a 100 mM PBS buffer. 2. Preparation of reaction system The reaction system was prepared according to the table below.
3. The reaction system was pre-incubated in a 37 °C water bath for 10 min. 40 µL of 10 mM NADPH solution (NADPH was dissolved in 100 mM phosphate-buffered saline) was added to the reaction system, with the final concentration of NADPH being 1 mM. A negative control was prepared by replacing the NADPH solution with 40 µL of phosphate-buffered saline. The negative control was used to exclude the effect of the chemical stability of the compound itself. 4. The reaction was initiated by adding 4 µL of 100 µM compound disclosed herein or positive control compound verapamil to the reaction system at a final concentration of 1 µM. 5. After 0.5 min, 15 min, 30 min, 45 min, and 60 min of mixing well by using a vortex oscillator, 50 µ L of the incubated sample was taken out, and glacial acetonitrile containing an internal standard of 4 folds was added to terminate the reaction. The sample was centrifuged at 3,220 g for 45 min. 90 µL of the supernatant was transferred to a feeding plate after the centrifugation was completed, and 90 µL ultrapure water was added. The mixture was well mixed for LC-MS/MS analysis.
All data were calculated by using Microsoft Excel software. The peak areas were determined by using an extracted ion chromatogram. The in vitro half-life (T1/2) of the test compound was determined by linear fitting of the natural logarithm of the elimination proportion of the test compound over time. In vitro half-life (T1/2) was calculated by the slope k: in vitro T1/2 = 0.693/k [formula]
The in vitro intrinsic clearance (in vitro CLint, unit: µL/min/mg protein) was calculated using the following formula: in vitro CLint = k × volume of incubation solution/enzyme protein content; [formula]

[3] = system: C57BL/6 mice; assay: In vivo pharmacodynamic study 1: hair growth scoring in shaved telogen-phase mice, topical treatment; conditions: for Score (mean±SD): hair growth score 0-5, topical twice daily, compound 001 2 wt%, compound 008 0.5 wt%
Text: Vehicle: propylene glycol/ethanol (30:70, v/v)
Animal information: C57BL/6 mice (male, aged 4-6 weeks, about 18-20 g), purchased from Shanghai Lingchang Biotechnology Co., Ltd. The mice were bred in an SPF-level environment within independently ventilated cages.
Skin preparation: After 1-2 weeks of acclimation, the hairs in a 2 cm × 3 cm area of the back of the mice were shaved to confirm that the hairs of the mice were in the telogen phase (the skin was pink) and the skin was not damaged.
Treatment: On day 3 after shaving, the mice were grouped for treatment. […] The control group received the control solvent. 12 mice were in each group.
The mice were weighed on days 10, 13, 18, 21, 25, and 30, and the hair growth state was scored and photographed.
The scoring criteria are as follows: • 0: no growth, with pink skin in the shaved area; • 1: the skin in the shaved area was gray (an increase of less than 20%); • 2: the skin in the shaved area was black (more than 20% but less than 40%); • 3: the skin in the shaved area was black with a little hair growth (more than 40% but less than 60%); • 4: the skin in the shaved area was black with partial hair growth (more than 60% but less than 80%); • 5: basically complete hair growth (80%-100% growth) in the shaved area.

[4] = treatment concentration: 3.3 µM
[5] = at the investigated doses (001 2%, 008 0.5%, BID topical)
[6] = treatment concentration: 6.7 µM

CCOC(=O)[C@@](C)(O)C(=O)Nc1cnc(C#N)c(C(F)(F)F)c1 [Compound 002, Ethyl (2S)-3-[[6-cyano-5-(trifluoromethyl)pyridin-3-yl]amino]-2-hydroxy-2-methyl-3-oxopropanoate]
AR antagonism (inhibition rate, %) [1, 4]: 89.16^a %
microsomal CLint at 1 µM [2]: 32.5 µL/min/mg
half-life at 1 µM [2]: 42.6 min

CCOC(=O)[C@](C)(O)C(=O)Nc1cnc(C#N)c(C(F)(F)F)c1 [Compound 003, ethyl (2R)-3-[[6-cyano-5-(trifluoromethyl)pyridin-3-yl]amino]-2-hydroxy-2-methyl-3-oxopropanoate]
AR antagonism (inhibition rate, %) [1, 4]: 75.26^a %
microsomal CLint at 1 µM [2]: 60.4 µL/min/mg
half-life at 1 µM [2]: 22.9 min

CCCOC(=O)[C@@](C)(O)C(=O)Nc1cnc(C#N)c(C(F)(F)F)c1 [Compound 004, Propyl (2S)-3-[[6-cyano-5-(trifluoromethyl)-pyridin-3-yl]amino]-2-hydroxy-2-methyl-3-oxopropanoate]
AR antagonism (inhibition rate, %) [1, 4]: 87.30^a %

CCCOC(=O)[C@](C)(O)C(=O)Nc1cnc(C#N)c(C(F)(F)F)c1 [Compound 005, propyl (2R)-3-[[6-cyano-5-(trifluoromethyl)-pyridin-3-yl]amino]-2-hydroxy-2-methyl-3-oxopropanoate]
AR antagonism (inhibition rate, %) [1, 4]: 58.52^a %

CCCCOC(=O)[C@@](C)(O)C(=O)Nc1cnc(C#N)c(C(F)(F)F)c1 [Compound 006, butyl (2S)-3-[[6-cyano-5-(trifluoromethyl)pyridin-3-yl]amino]-2-hydroxy-2-methyl-3-oxopropanoate]
AR antagonism (inhibition rate, %) [1, 4]: 93.92^a %

CCOC(=O)C(O)(C(=O)Nc1cnc(C#N)c(C(F)(F)F)c1)C(F)(F)F (stereo not shown) [Compound 008, Ethyl 2-[[6-cyano-5-(trifluoromethyl)-pyridin-3-yl]carbamoyl]-3,3,3-trifluoro-2-hydroxypropanoate]
AR antagonism (inhibition rate, %) [1, 4]: 86.95^a %
Score (mean±SD) ([3]; Day 0): 0
Score (mean±SD) ([3]; Day 10): 0.4±0.5
Score (mean±SD) ([3]; Day 13): 0.6±0.5
Score (mean±SD) ([3]; Day 18): 1.0±0.6
Score (mean±SD) ([3]; Day 21): 1.1±0.7
Score (mean±SD) ([3]; Day 25): 1.9±1.5
Score (mean±SD) ([3]; Day 30): 2.8±2.1
impact on the body weight of the mice [3, 5]: no significant impact
signs of erythema, dehiscence, desquamation, and the like on the skin [3, 5]: no signs
effect on mouse hair growth ([3]; compound 001 at 2%, compound 008 at 0.5%, BID topically at 20 µL/cm^2): significant promoting effect
day of the treatment from which hair growth was significantly promoted ([3]; vs. vehicle control, 001 P < 0.01, 008 P < 0.05): ≥ 13 days
microsomal CLint at 1 µM [2]: 35.5 µL/min/mg
half-life at 1 µM [2]: 39.1 min

CCCOC(=O)C(O)(C(=O)Nc1cnc(C#N)c(C(F)(F)F)c1)C(F)(F)F (stereo not shown) [Compound 010, Propyl 2-[[6-cyano-5-(trifluoromethyl)-pyridin-3-yl]carbamoyl]-3,3,3-trifluoro-2-hydroxypropanoate]
AR antagonism (inhibition rate, %) [1, 4]: 82.14^a %

CCCCOC(=O)C(O)(C(=O)Nc1cnc(C#N)c(C(F)(F)F)c1)C(F)(F)F (stereo not shown) [Compound 011, Butyl 2-[[6-cyano-5-(trifluoromethyl)-pyridin-3-yl]carbamoyl]-3,3,3-trifluoro-2-hydroxypropanoate]
AR antagonism (inhibition rate, %) [1, 4]: 88.48^a %

CC(C)(C)OC(=O)C(C)(O)C(=O)Nc1cnc(C#N)c(C(F)(F)F)c1 (stereo not shown) [Compound 014, tert-Butyl 3-[[6-cyano-5-(trifluoromethyl)-pyridin-3-yl]amino]-2-hydroxy-2-methyl-3-oxopropanoate]
AR antagonism (inhibition rate, %) [1, 4]: 90.3^a %

CCOC(=O)C(O)(C(=O)Nc1ccc(C#N)c(SC)c1F)C(F)(F)F (stereo not shown) [Compound 015, Ethyl 2-[(4-cyano-2-fluoro-3-methylsulfanyl-phenyl)carbamoyl]-3,3,3-trifluoro-2-hydroxy-propanoate]
AR antagonism (inhibition rate, %) [1, 4]: 65.06^a %

CCOC(=O)C(C)(O)C(=O)Nc1cnc(C#N)c(SC)c1 (stereo not shown) [Compound 016, Ethyl 3-[(6-cyano-5-methylthio-pyridin-3-yl)amino]-2-hydroxy-2-methyl-3-oxopropanoate]
microsomal CLint at 1 µM [2]: 102 µL/min/mg
half-life at 1 µM [2]: 13.6 min

CCCCOC(=O)C(C)(O)C(=O)Nc1ccc(C#N)c(C(F)(F)F)c1 (stereo not shown) [Compound 022, Butyl 3-[4-cyano-3-(trifluoromethyl)anilino]-2-hydroxy-2-methyl-3-oxo-propanoate]
AR antagonism (inhibition rate, %) [1, 4]: 81.05^a %

CCCCOC(=O)C(C)(O)C(=O)Nc1ccc(Cl)c(C(F)(F)F)c1 (stereo not shown) [Compound 023, Butyl 3-[4-chloro-3-(trifluoromethyl)anilino]-2-hydroxy-2-methyl-3-oxo-propanoate]
AR antagonism (inhibition rate, %) [1, 4]: 52.26^a %

CCOC(=O)c1cccc(NC(=O)C(C)(O)C(=O)Nc2cnc(C#N)c(C(F)(F)F)c2)n1 (stereo not shown) [Compound 032, Ethyl 6-(3-((6-cyano-5-(trifluoromethyl)pyridin-3-yl)amino)-2-hydroxy-2-methyl-3-oxopropanamido)picolinate]
AR antagonism (inhibition rate, %) [1, 4]: 47.7^a %

COc1cc(NC(=O)C(C)(O)C(=O)OC(C)(C)C)cnc1C#N (stereo not shown) [Compound 048, tert-Butyl 3-[(6-cyano-5-methoxypyridin-3-yl)amino]-2-hydroxy-2-methyl-3-oxo-propanoate]
AR antagonism (inhibition rate, %) [1, 6]: 62.18^b %

CSc1cc(NC(=O)C(C)(O)C(=O)OC(C)(C)C)cnc1C#N (stereo not shown) [Compound 049, tert-Butyl 3-[(6-cyano-5-methylthiopyridin-3-yl)amino]-2-hydroxy-2-methyl-3-oxo-propanoate]
AR antagonism (inhibition rate, %) [1, 6]: 90.02^b %
